Laboratory results reported in patent publication US6583155B2, “Method for treating allergies using substituted pyrazoles” (priority 2000, dated 2003).
“Also recorded” adds a separate entry of the source.

What was measured:
[1] = test system: human T cells (PBMC from allergic donors) stimulated with house dust mite extracts; test: Ex vivo human T cell-proliferation assay, house dust mite allergen extracts
[2] = test system: human T cells (PBMC from allergic donors) stimulated with ragweed extracts; test: Ex vivo human T cell-proliferation assay, ragweed allergen extracts; details: PBMC from allergy donors, 7 days culture, 3H-thymidine incorporation
[3] = test system: invariant chain (li) degradation in PBMC from human blood; test: Monitoring cathepsin S inhibition in human blood: p10li fragment by Western blot; details: incubation for 24 h, SDS-PAGE / Western blot
[4] = test system: human T cells (PBMC) stimulated with ConA; test: Ex vivo human T cell-proliferation assay, ConA (pan-T cell mitogen) control; details: pan-T cell mitogen specificity control

Structure (SMILES)	T cell proliferative responses to Der f extract ([1]; PBMC from an allergy donor, titrated doses of compound, 7 days, 3H-thymidine incorporation (FIG. 3))	T cell proliferative responses to ragweed extracts (short and giant) [2]	p10li fragment of invariant chain (block in degradation of li) [3]	T cell proliferative responses to house dust mite extracts (Der p and Der f) ([1]; PBMC from allergy donors, 7 days culture, 3H-thymidine incorporation)	T cell proliferative responses induced by ConA [4]
CS(=O)(=O)N1CCc2c(c(-c3ccc(Br)cc3)nn2CC(O)CN2CCC(n3c(=O)[nH]c4ccc(Cl)cc43)CC2)C1 (stereo not shown) [Example 8, 1-(1-{3-[3-(4-Bromo-phenyl)-5-methanesulfonyl-4,5,6,7-tetrahydro-pyrazolo[4,3-c]pyridin-1-yl]-2-hydroxy-propyl}-piperidin-4-yl)-6-chloro-1,3-dihydro-benzoimidazol-2-one]	inhibition	inhibition	–	–	–
CC(C)C[C@H](NC(=O)N1CCOCC1)C(=O)N[C@H](/C=C/S(=O)(=O)c1ccccc1)CCc1ccccc1 [LHVS, 4-morpholinecarboxamide, N-[(1S)-3-methyl-1-[[[(1S, 2E)-1-(2-phenylethyl)-3-(phenylsulfonyl)-2-propenyl]amino]carbonyl]butyl]-]	–	strongly inhibited; also recorded: inhibition	the p10li fragment was seen	strongly inhibited; also recorded: inhibition	not affected
Cc1cc(-c2nn(CC(O)CN3CCC(n4c(=O)[nH]c5ccc(Cl)cc54)CC3)c3c2CN(S(C)(=O)=O)CC3)ccc1Cl (stereo not shown) [Example 53, 6-Chloro-1-(1-{3-[3-(4-chloro-3-methyl-phenyl)-5-methanesulfonyl-4,5,6,7-tetrahydro-pyrazolo[4,3-c]pyridin-1-yl]-2-hydroxy-propyl}-piperidin4-yl)-1,3-dihydro-benzoimidazol-2-one]	–	inhibition	–	–	–
